Reference: US6054484A, “Transparent aqueous solution of diclofenac sodium and medicinal compositions with the use of the same” (Tsumura & Co., priority 1996, dated 2000)

What was measured:
[1] = cited from earlier work
[2] = Solubility of drug substance in water, oil ingredients and fatty acid diethanolamide; format: physicochemical

| SMILES | solubility in water [1] | dissolution in coconut fatty acid diethanolamide ([2]; coconut fatty acid diethanolamide alone) | solubility in oil ingredients ([2]; in oil ingredients) | dissolution in liquid mixture of coconut fatty acid diethanolamide with water ([2]; liquid mixture with water) | solubility in water (in words) [1] |
| --- | --- | --- | --- | --- | --- |
| O=C(O)Cc1ccccc1Nc1c(Cl)cccc1Cl [diclofenac sodium] | about 1.5 wt. % | does not dissolve | low solubility | at a high concentration and stably |  |
| COc1ccc2c(c1)c(CC(=O)O)c(C)n2C(=O)c1ccc(Cl)cc1 [indomethacin] |  |  |  |  | insoluble in water |
